The results in this text go back to patent US12433952B2, “Antibody-drug conjugates targeting folate receptor alpha and methods of use” (ZYMEWORKS BC INC., priority 2022, dated 2025).

Where two headings read alike, the source gives them in different places.

Assay type in all cases: cell-based
The test system of data set [1] is FRα-negative MDA-MB-468 cells co-cultured with FRα-positive JEG-3. In words: Bystander activity of ADCs (mono-culture vs co-culture, flow cytometry). As to conditions: 4 days; for bystander activity / Average MDA-MB-468 Viability (%) Mono-culture / % Bystander Activity: 2 nM ADC; for bystander activity: viability of MDA-MB-468 in co-culture vs mono-culture; for Average MDA-MB-468 Viability (%) Co-culture: MDA-MB-468 co-cultured with JEG-3, 2 nM ADC; for Average MDA-MB-468 Viability (%) Co-culture / Average MDA-MB-468 Viability (%) Mono-culture: relative to untreated blank; for Average MDA-MB-468 Viability (%) Mono-culture: MDA-MB-468 mono-culture; for % Bystander Activity: mono-culture viability compared with co-culture viability. Here is the method: The ability of the humanized variant v30384 conjugated to various drug-linkers to exert a bystander killing effect on cancer cells was assessed according to the method described below. Bystander killing most commonly occurs after target-specific uptake of an ADC into an antigen-positive cell. Trafficking and degradation of the ADC results in release of active catabolite free drug, which then crosses the cell membrane of nearby cells to elicit cell death.
FRα-positive JEG-3 and FRα-negative MDA-MB-468 cells were seeded either as mono-cultures or co-cultures in a 48-well plate at 20,000 cells and 10,000 cells, respectively, in 100 μL assay media (Minimum Essential Media supplemented with 10% Fetal Bovine Serum (both from Thermo Fisher Scientific, Waltham, MA)). ADCs were diluted to 4 nM in assay media and 100 μL was added to the cell-containing plates (2 nM final ADC concentration). Cells were incubated with ADCs for 4 days under standard culturing conditions (37° C./5% C02). Following incubation, cells were dissociated, washed, and stained using a viability dye, YO—PRO®-1 (ThermoFisher Scientific, Waltham, MA), and an anti-FRα antibody, mirvetuximab (v17716), conjugated to Alexa Fluor®647, for 20 minutes at 4° C. After incubation, cells were washed in FACS buffer (phosphate buffered saline pH 7.4 (ThermoFisher Scientific, Waltham, MA) supplemented with 2% FBS), resuspended in 70 μL FACS buffer per well, and 35 μL per well were analyzed on a BD LSRFortessa™ Cell Analyzer (BD Biosciences, Franklin Lake, NJ). Dead cells were excluded by gating on YO—PRO®-1 staining. The number of JEG-3 and MDA-MB-468 cells were determined by the number of events in the Alexa Fluor®647 positive (FRα-positive) and Alexa Fluor®647 negative (FRα-negative) gates, respectively. Percent viability was calculated as the number of cells in treatment condition divided by the number of cells in the no-treatment condition.
For orientation: Flow cytometry measures light scatter and fluorescence of single cells or particles in a stream.

The test system of data set [2] is Calu-3 (lung cancer). Nature of the data set: In vitro cytotoxicity of camptothecin analogues (CellTiter-Glo). Particulars: Homo sapiens, Calu-3, 96 h, read-out: pIC50 Calu-3 (converted). In short, it runs like this:
(§1)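 Cells seeded at 20,000 cells/mL (ZR-75-1 at 10,000 cells/mL) with serially diluted compounds in RPMI 1640 + 10% FBS and incubated 4 d at 37 °C (ZR-75-1 5 d). Growth inhibition was read by CellTiter-Glo luminescence and IC50 fitted.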
A general note: In ATP-based viability assays light output follows the ATP content of the culture.

Data set [3] concerns MDA-MB-468 (breast cancer). The data set is described as above. As to conditions: Homo sapiens, MDA-MB-468, 96 h, read-out: pIC50 MDA-MB-468 (converted). The gist of the method: as §1
The subject of data set [4] is SK-BR-3 (breast cancer). Described as above. Particulars: Homo sapiens, SK-BR-3, 96 h, read-out: pIC50 SKBR-3 (converted). The gist of the method: as §1
Data set [5] deals with SKOV-3 (ovarian cancer). The description is as above. As to conditions: Homo sapiens, SK-OV-3, 96 h, read-out: pIC50 SKOV-3 (converted). The gist of the method:
as §1

Data set [6] concerns ZR-75-1 (breast cancer). The description is as above. Particulars: Homo sapiens, ZR-75-1, 120 h, read-out: pIC50 ZR-75 (converted). The gist of the method: as §1

“palivizumab MC-GGFG-AM-DXd1: "ADCs comprising palivizumab (v22277) conjugated to MC-GGFG-AM-DXd1 and MCvcPABC-MMAE were included as negative controls"”: the bystander activity entry in data set [1] is reported as “negative bystander activity”.
As to “v22277-MC-GGFG-AM-DXd1: "negative controls palivizumab (anti-RSV) (v22277) conjugated to MC-GGFG-AM-DXd1 (DAR 8) and MCvcPABC-MMAE (DAR 4)"”, in data set [1], the “Average MDA-MB-468 Viability (%) Co-culture” value is 101.8%, the “Average MDA-MB-468 Viability (%) Mono-culture” value is reported as 91.6% and the “% Bystander Activity” value was −10.2%.
In the case of “v22277-MCvcPABC-MMAE: "negative controls palivizumab (anti-RSV) (v22277) conjugated to MC-GGFG-AM-DXd1 (DAR 8) and MCvcPABC-MMAE (DAR 4)"”, in data set [1], the “Average MDA-MB-468 Viability (%) Co-culture” value was found to be 94.2%, the “Average MDA-MB-468 Viability (%) Mono-culture” value is on record as 81.3% and the “% Bystander Activity” value is −12.9%.
Consider “palivizumab MCvcPABC-MMAE: "ADCs comprising palivizumab (v22277) conjugated to MC-GGFG-AM-DXd1 and MCvcPABC-MMAE were included as negative controls"”, for which the bystander activity result in data set [1] was “negative bystander activity”.
On to `CC[C@@]1(O)C(=O)OCc2c1cc1n(c2=O)Cc2c-1nc1cc(F)c(C)cc1c2CNC(=O)OCCO` [Compound 139, 2-hydroxyethyl (S)-((4-ethyl-8-fluoro-4-hydroxy-9-methyl-3,14-dioxo-3,4,12,14-tetrahydro-1H-pyrano[3′,4′:6,7]indolizino[1,2-b]quinolin-11-yl)methyl)carbamate], for which the IC50 in data set [2] (4 d incubation) is 7.08 nM; in data set [3] (4 d incubation), 1.51 nM; in data set [4] (4 d incubation) it was 1.2 nM; in data set [5] (4 d incubation), 5.01 nM; in data set [6] (5 d incubation) it was 1.07 nM.
The matching figures for `CC[C@@]1(O)C(=O)OCc2c1cc1n(c2=O)Cc2c-1nc1cc(F)c(N)cc1c2CN1CCOCC1` [Compound 142, (S)-9-amino-4-ethyl-8-fluoro-4-hydroxy-11-(morpholinomethyl)-1,12-dihydro-14H-pyrano[3′,4′:6,7]indolizino[1,2-b]quinoline-3,14(4H)-dione]: 1.29 nM, 1.29 nM, 0.631 nM, 1.29 nM and 0.759 nM.
The corresponding values for `CC[C@@]1(O)C(=O)OCc2c1cc1n(c2=O)Cc2c-1nc1cc(F)c(C)cc1c2CNC(=O)NCCO` [Compound 136, (S)-1-((4-ethyl-8-fluoro-4-hydroxy-9-methyl-3,14-dioxo-3,4,12,14-tetrahydro-1H-pyrano[3′,4′:6,7]indolizino[1,2-b]quinolin-11-yl)methyl)-3-(2-hydroxyethyl)urea] are 26.3 nM, 6.31 nM, 3.98 nM, 51.3 nM and 5.01 nM.
On to `CC[C@@]1(O)C(=O)OCc2c1cc1n(c2=O)Cc2c-1nc1cc(F)c(C)cc1c2CNS(=O)(=O)c1ccccc1` [Compound 125, (S)—N-((4-ethyl-8-fluoro-4-hydroxy-9-methyl-3,14-dioxo-3,4,12,14-tetrahydro-1H-pyrano[3′,4′:6,7]indolizino[1,2-b]quinolin-11-yl)methyl)benzenesulfonamide], for which the IC50 in data set [2] was 2.82 nM; in data set [3], 3.8 nM; in data set [4], 1.32 nM; in data set [5], 7.08 nM; in data set [6], 1.32 nM.
On to `CC[C@@]1(O)C(=O)OCc2c1cc1n(c2=O)Cc2c-1nc1cc(F)c(OC)cc1c2CNS(C)(=O)=O` [Compound 123, (S)—N-((4-ethyl-8-fluoro-4-hydroxy-9-methoxy-3,14-dioxo-3,4,12,14-tetrahydro-1H-pyrano[3′,4′:6,7]indolizino[1,2-b]quinolin-11-yl)methyl)methanesulfonamide], for which the IC50 is 3.72 nM in data set [2] (4 d incubation); 2 nM in data set [3] (4 d incubation); 1.91 nM in data set [4] (4 d incubation); 19.5 nM in data set [5] (4 d incubation); 2.45 nM in data set [6] (5 d incubation).
As to `CC[C@@]1(O)C(=O)OCc2c1cc1n(c2=O)Cc2c-1nc1cc(F)c(C)cc1c2CN1CCN(C(=O)OC(C)(C)C)CC1` [Compound 111, tert-butyl (S)-4-((4-ethyl-8-fluoro-4-hydroxy-9-methyl-3,14-dioxo-3,4,12,14-tetrahydro-1H-pyrano[3′,4′:6,7]indolizino[1,2-b]quinolin-11-yl)methyl)piperazine-1-carboxylate], the IC50 in data set [2] (4 d incubation) is 19.5 nM; in data set [3] (4 d incubation), 28.8 nM; in data set [4] (4 d incubation) it was 8.51 nM; in data set [5] (4 d incubation), 16.6 nM; in data set [6] (5 d incubation), 9.12 nM.
The corresponding values for `CC[C@@]1(O)C(=O)OCc2c1cc1n(c2=O)Cc2c-1nc1cc(F)c(OC)cc1c2CN1CCN(S(=O)(=O)c2ccc(N)cc2)CC1` [Compound 105, (S)-11-((4-((4-aminophenyl)sulfonyl)piperazin-1-yl)methyl)-4-ethyl-8-fluoro-4-hydroxy-9-methoxy-1,12-dihydro-14H-pyrano[3′,4′:6,7]indolizino[1,2-b]quinoline-3,14(4H)-dione] are 4.47 nM, 2.75 nM, 3.63 nM, 10.7 nM and 3.09 nM.
